Experimental data: patent publication US9233903B2, “Pharmaceutical substances on the basis of mitochondria-addressed antioxidants” (Mitotech SA, priority 2009, dated 2016)

Key:
[1] = tested on: E. coli MG1655 pLUX::PkatG
Source text: (§1) To test pro-oxidant and antioxidant properties of mitochondria-addressed compounds of general formula (I), a method for determining oxidative stress in E. coli cells was developed. For this purpose, a biosensor system was created based on luxAB genes encoding bacterial luciferases to study effect of penetrating ions on oxidative stress in a bacterial cell.
The lux-biosensors were developed on the basis of these inducible promoters.
(§2) All the promoters used in the method, with corresponding regulatory regions, were obtained from the genome of the E. coli K12 MG1655 bacteria by the PCR method with the use of specific synthesized primers. A non-promoter vector with the pBR322 replicon and bla gene responsible for resistance to ampicillin (selective marker) was used as a vector. The promoter region was embedded into the plasmid at the EcoRI-BamHI sites. The lux operon of Ph. luminescens consisting of five genes, luxCDABE, was selected as the lux cassette.
(§3) In the first phase of testing, conditions for oxidative stress induction at which the maximum induction of luminescence occurs, were selected.

HeLa cells = assay: H2O2-induced oxidative stress in cells, DCF-DA cytofluorimetry; format: cell-based, human; conditions: incubation for 1 to 5 hours
Procedure: To measure the level of oxidative stress stimulated by H2O2, cells were stained with fluorescent dye DCF-DA (2′,7′-dichloro-dihydrofluorescein diacetate), and the level of fluorescence of the dye was measured with a cytofluorimeter.
Estimates were made on the basis of seven experiments. Data were estimated with respect to a group of the control cells lying on the diagram in the area of low DCF-DA fluorescence (50% of the population), this group of cells was taken as 100% and indicators for every action were estimated relative to this group.

gramicidin channels [2] = assay: Protection of gramicidin channels in bilayer membrane, damage by FeSO4, ascorbate and tert-butyl hydroperoxide; format: biochemical; conditions: FeSO4, ascorbate, tert-butyl hydroperoxide; FIG. 3B
Source text: A method was developed which allows the study of the antioxidant activity of compounds in a simple system consisting of a bilayer membrane, […]). […]

[3] = tested on: HeLa and normal human diploid fibroblasts; assay: Protection of cells against H2O2-induced death (apoptosis), Hoechst/PI counting; format: cell-based; conditions: incubation with the cells for 5 to 7 days
Procedure: Testing of the antioxidant capacity of the compounds was performed using the methods of cytofluometry and fluorescence microscopy.
In preliminary experiments for each cell culture, the optimal concentration of H2O2 which causes significant (60% to 80%) cell apoptosis with no visible signs of necrosis was selected. To determine the chromatin condensation and fragmentation which occurs in apoptotic cells, the fluorescent dye Hoechst was used. The dye at a concentration of 1 μg/ml was added to live or fixed cells at the end of a 30 min incubation. To determine necrosis, the fluorescent dye propidium iodide (PI) at a concentration of 2 μg/ml was added to non-fixed cells. The percentage of apoptotic and necrotic cells was determined by counting the number of cells with fragmented nuclei and cells permeable to propidium iodide, respectively.

[4] = Penetrating ability on artificial black (bilayer phospholipid) membranes, membrane potential; format: physicochemical; conditions: for penetrating ability: bilayer membrane, comparison between compounds; for membrane potential (Δψ) generated: concentration range from 10^−7 to 10^−6 M, FIG. 2B
Source text: To test the penetrating ability of mitochondria-addressed compounds of structure (I), a method is used based on the ability of ions to penetrate through the phospholipid membrane bilayer moving along the concentration gradient. […] If a charged substance can penetrate through the bilayer membrane, its rapid diffusion out of the chamber having a high concentration of the substance, to the chamber having a low concentration of the substance, occurs, and thus a membrane potential difference is created. For ions which are carrying one charge and able to easily penetrate through the membrane, a 10-fold concentration gradient allows for creation of a potential of 60 mV (according to the Nernst equation). This method was used in various studies of the ability of ions to pass through the lipid bilayer of the membrane.

mitochondria = assay: Accumulation in mitochondria measured with tetraphenylphosphonium-selective electrode; format: in vitro ADME; conditions: FCCP uncoupler; FIG. 4
Procedure: The ability of compounds of general formula (I) to accumulate in mitochondria was tested using a tetraphenylphosphonium-selective electrode. The method is used for compounds of general formula (I) in which the lipophilic cation tetraphenylphosphonium is used as the target group. With this electrode, it is possible to measure distribution of tetraphenylphosphonium cation (or compounds which comprise this cation) between the mitochondrial matrix and the medium.

[5] = Solubility in aqueous solutions
[6] = tested on: E. coli MG1655 pLUX::PsoxS; format: cell-based
Source text: as §1
The PsoxS promoter is activated when superoxide ion-radical appears in the environment. The lux-biosensors were developed on the basis of these inducible promoters.
as §2, §3

gramicidin channels [7] = assay: Protection of gramicidin channels in bilayer membrane, damage by photoactivated phthalocyanine; format: biochemical; conditions: photoactivation of phthalocyanine; FIG. 3A
Source text: A method was developed which allows the study of the antioxidant activity of compounds in a simple system consisting of a bilayer membrane, a conducting protein gramicidin and a photosensitizer (Mito Tracker Red, Invitrogen, Carlsbad, Calif.), thrice sulfonated aluminum phthalocyanine or zinc phthalocyanine). The method uses the ability of reactive oxygen species generated by photoactivation of the photosensitizer molecules to damage gramicidin channels, resulting in a sharp decrease in the conducting ability of the bilayer membrane.

OO [Compound H2O2, hydrogen peroxide]
time at which induction of luminescence becomes evident ([1]; FIG. 10A): ≤ 15 min
time to maximum luminescence ([1]; FIG. 10A): one hour
ratio of luminescence intensity between control cells and induced cells ([1]; optimal concentrations of H2O2): 1/80

COC1=C(OC)C(=O)C(CCCCCCCCCC[P+](c2ccccc2)(c2ccccc2)c2ccccc2)=C(C)C1=O [MitoQ]
effect on H2O2-induced oxidative stress in cells (HeLa cells): did not prevent
antioxidant efficiency, protection of gramicidin channels (gramicidin channels [2]): less efficient antioxidants
resistance of cells to H2O2 [3]: increase resistance of cells to H2O2
penetrating ability [4]: less penetrating abilities compared to SkQ3 or SkQR1

CC1=C(C)C(=O)C(CCCCCCCCCC[P+](c2ccccc2)(c2ccccc2)c2ccccc2)=CC1=O [SkQ1, [10-(4,5-dimethyl-3,6-dioxo-cyclohexa-1,4-dien-1-yl)decyl]-triphenylphosphonium bromide]
energy-independent accumulation in mitochondria (mitochondria): independent of the degree of energization of the mitochondria

CC1=C(C)C(=O)C(CCCCCCCCCC[P+](c2ccccc2)(c2ccccc2)c2ccccc2)=C(C)C1=O [SkQ3]
antioxidant efficiency, protection of gramicidin channels (gramicidin channels [2]): less efficient antioxidants

CC1=C(C)C(=O)C(CCCCC[P+](c2ccccc2)(c2ccccc2)c2ccccc2)=CC1=O [SkQ5]
energy-independent accumulation in mitochondria (mitochondria): reduced

COc1ccc2c(CC(=O)OCCCCCCCC3=CC(=O)C(C)=C(C)C3=O)c3[n+](cc2c1OC)CCc1cc2c(cc1-3)OCO2 [SkQB1, 13-[7-(4,5-dimethyl-3,6-dioxo-cyclohexa-1,4-dien-1-yl)heptyloxycarbonyl-methyl]berberine]
solubility in aqueous solutions [5]: poor solubility
membrane potential (Δψ) generated [4]: almost the same Δψ as SkQ1

COc1cc2c(cc1OC)-c1c(CC(=O)OCCCCCCCC3=CC(=O)C(C)=C(C)C3=O)c3ccc(OC)c(OC)c3c[n+]1CC2 [SkQBP1, 13-[7-(4,5-dimethyl-3,6-dioxo-cyclohexa-1,4-dien-1-yl)heptyloxycarbonyl-methyl]palmatine]
membrane potential (Δψ) generated [4]: almost the same Δψ as SkQ1

CC/N=c1/cc2oc3cc(NCC)c(C)cc3c(-c3ccccc3C(=O)OCCCCCCCCCCC3=CC(=O)C(C)=C(C)C3=O)c-2cc1C [SkQR1]
effect on H2O2-induced oxidative stress in cells (HeLa cells): has antioxidant activity
concentration above which compound ceases to obey the Nernst equation (membrane damage) ([4]; FIG. 2A): higher than 5×10^−5 M
penetrating ability [4]: higher penetrating ability

C[n+]1ccc(-c2cc[n+](C)cc2)cc1 [paraquat]
time at which induction of luminescence becomes evident ([6]; FIG. 10B): 15 to 20 min
time to maximum luminescence ([6]; FIG. 10B): two hours
ratio of luminescence intensity between control cells and induced cells ([6]; optimal concentrations of paraquat): 1/100

superoxide dismutase
prevention of fall in membrane conductance (gramicidin channels) (gramicidin channels [7]): effectively blocked
